In general, pEC50 refers to −log10 of the EC50, conventionally taken in molar units.

Each structure is given as a SMILES string. pEC50: −log10 of the molar value. Values joined by “and” are separate entries in the source; they are usually repeats but may differ in a detail not shown here. Identical values can stand only once.

One assay has as its target CpomOrco (Cydia pomonella, UniProt H9A5M2). In words: Whole-cell voltage-clamp recordings of HEK293A cells transfected with CpomOrco, VUAA1. Format: cell-based. Particulars: for pEC50: EC50 (K1/2). The procedure: (§1) HEK293 cells lines (HEK293A/HEK293T) were grown in HEK cell media [Dulbecco's modified Eagle's medium containing 10% fetal bovine serum (MP Biomedicals, Solon, OH, USA), 2.0 mM L-glutamine, and 100 µg/mL penicillin/streptomycin (Invitrogen)] at 37 °C and 5% CO2. To test transient expression of wild type CpomOrco and CpomOrco^Q417H variant for calcium imaging and patch-clamp recording, 35-mm petri dishes containing semi-confluent HEK293A cells were transiently transfected. Cells were transfected with 0.6 µg of pcDNA40-DEST carrying the coding sequence of the CpomOrco variant (depending on the experiments). To report expression for calcium imaging experiments, 0.6 µg of a separate plasmid DNA [pEBFP2-Nuc, a gift from Robert Campbell (Addgene plasmid # 1489352)] carrying the coding sequence for a blue fluorescent protein (EBFP) was co-transfected. To report expression in patch-clamp recordings, 1.0 µg of a separate plasmid DNA (pXOOM, Clontech, Mountain View, CA, USA) carrying the coding sequence for a green fluorescent protein (GFP) was co-transfected. Expressions of fluorescent reporter genes were under the regulation of the same promoter for Cpom-genes (CMV). For specific experiments, co-transfections were conducted combining an additional 1.2 µg of pcDNA40-DEST/CpomOR3 or pcDNA40-DEST/CpomOR6a, as we previously described. Co-transfections with CpomOR3 were performed for dose–response experiments to pear ester: CpomOR3 was co-expressed with CpomOrco variants by the use of HEK293T (Fig. 3b); given the reported functional co-expression data of the CpomOrco + OR3 heteromers by the use of these specific cells. In brief, transfection DNAs were dissolved in 100 µL sterile DMEM, mixed with 3.0 µL Calfectin (SignaGen, Rockville, MD, USA) following the recommended protocol. Transfections were conducted overnight for up to 18 h, HEK cell media was replaced with 2.0 mL fresh media to incubate cells at 37 °C for up to 6–8 h, at which point part of the cell culture was spread in the middle of a 35-mm plate as individual cells or small clusters and rinsed at the sides with 2.0 mL fresh HEK media. After splitting, cells were allowed to recover for at least 1 day prior to calcium imaging.
Electrophysiological experiments were performed according with the same procedures we previously described. Patch pipettes were fabricated from borosilicate capillary glass (BF150-86–10, Sutter Instrument, CA, USA) using a Flaming-Brown micropipette puller (P-87, Sutter Instrument). Only patches with initial cell-attached seal resistance estimated higher than 1.0 GOhms were used in the experiments. Intracellular (pipette) solution for whole-cell experiments was KCl 140 mM, EGTA 1 mM, Hepes 5 mM, MES 5 mM, pH 8.0 or pH 5.5 (depending on the experiment) adjusted with either NaOH or HCl, standard Na^+ 140 mM. bath solution was usually NaCl 140 mM, EGTA 0.1 mM, Hepes 10 mM, pH 7.4 (adjusted with Tris-base or NaOH). VUAA1 doses (0–1000 µM) were added to the extracellular test solutions.
As described in methods of Cattaneo et al.[14], GFP positive HEK293A cells were visualized using either an Axiovert 100 inverted microscope (Carl Zeiss, Inc., München, Germany) equipped with a mercury vapour compressed-arc lamp (HBO100) coupled to widefield fluorescence filter set (1114–459, Carl Zeiss, Inc.) or Olympus IX-71 inverted microscope described above (Olympus Corp.). The Orco channel-mediated currents were investigated using whole-cell patch-clamp recordings. The currents were measured with a 200B patch-clamp amplifier (Molecular Devices) and a digital interface (Digidata 1320A, Molecular Devices), low pass filtered at 5.0 kHz, sampled at 1–2 kHz. Analysis of the data was carried out using pCLAMP 9.2/10.5 software (Molecular Devices) and SigmaPlot 11 (Systat Software Inc). […]

The next assay has as its target CpomOrco^Q417H (Cydia pomonella, UniProt H9A5M2, Q417H). Put plainly: Calcium imaging (Fluo-4) of HEK293A cells transfected with mutagenized CpomOrco^Q417H, VUAA1 stimulation. Format: cell-based. Conditions: for pEC50: EC50, HEK293A; for Hill coefficient / maximum response (Hill fit of calcium response amplitudes): HEK293A. As for the experimental part:
as §1
Activation of HEK293 cells transfected with CpomOrco variants was tested using the same procedures we previously described. Petri dishes were incubated for 1 h at room temperature in 1.0 mL HEK Ca^++ Ringer (mM: 140 NaCl, 5.0 KCl, 2.0 CaCl2, 10 HEPES, pH 7.4) containing the fluorescent calcium indicator Fluo-4AM (Invitrogen) at 5–15 µM prepared with 0.2–0.06% Pluronic F-127 (Invitrogen). To monitor intracellular pH, HEK293A cells were loaded with 10.0 µL BCECF dye (Anaspec, Fremont, CA).
As reported in Cattaneo et al.[14], the buffer was removed after incubation, cells were rinsed with 4.0 mL fresh HEK Ca^++ Ringer and placed on the stage of an inverted microscope (Olympus IX-71, Olympus Corp., Tokyo, Japan) equipped with a cooled CCD camera (ORCA R2, Hamamatsu, Hamamatsu City, Japan). Cells were continuously superfused with Ca^++ Ringer using two gravity fed perfusion contours. The […] contour washing the cells (~ 250 µL/min) was switched rapidly to the stimulus contour using a multi-channel rapid solution changer (RSC-160, Bio-Logic, Claix, France) under the software control of Clampex 9 (Molecular Devices, Sunnyvale, CA, USA).
Fluorescence imaging was performed using settings optimized for Imaging Workbench 6 software (INDEC BioSystems, Santa Clara, CA, USA)[14]. The non-responsive cells were not included in these analyses. Each cell was assigned a region of interest (ROI) and changes in fluorescence intensity within each ROI were measured and expressed as the fractional change in fluorescence intensity (dF). Stored time series image stacks were analysed off-line using Imaging Workbench 6, Clampfit 10.5 (Molecular Devices) and SigmaPlot 11 (Systat Software Inc., San Jose, CA, USA). Dose–response curves were approximated using Hill equation. […]

The mark [1] stands for this setting: intracellular pH = 5.5, extracellular pH 7.4, -50 mV.
Where [2] appears, read: intracellular pH = 8.0, extracellular pH 7.4, -50 mV.
[3] abbreviates: after 30 min incubation at low pHe = 4.7.

Sequence of CpomOrco^Q417H (H9A5M2 entry or part of it Q417H): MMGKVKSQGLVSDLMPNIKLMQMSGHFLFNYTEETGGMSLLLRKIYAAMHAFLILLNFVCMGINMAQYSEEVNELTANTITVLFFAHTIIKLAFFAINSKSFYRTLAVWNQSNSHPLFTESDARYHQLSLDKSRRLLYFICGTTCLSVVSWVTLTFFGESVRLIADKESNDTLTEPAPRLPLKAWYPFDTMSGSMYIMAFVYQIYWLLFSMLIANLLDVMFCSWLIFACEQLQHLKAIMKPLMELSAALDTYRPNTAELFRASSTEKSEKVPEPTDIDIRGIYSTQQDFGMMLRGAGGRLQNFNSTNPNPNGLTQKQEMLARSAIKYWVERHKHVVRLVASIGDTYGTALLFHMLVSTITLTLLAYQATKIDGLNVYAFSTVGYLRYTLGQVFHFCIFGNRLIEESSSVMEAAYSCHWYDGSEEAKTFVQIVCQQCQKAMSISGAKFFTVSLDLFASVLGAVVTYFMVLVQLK
Sequence of CpomOrco (H9A5M2 entry or part of it): as the sequence (H9A5M2 entry or part of it Q417H) above, with H417Q counted along it

In the case of `CCc1ccc(NC(=O)CSc2nnc(-c3cccnc3)n2CC)cc1` [VUAA1, acetamide,N-(4-ethylphenyl)-2-[[4-ethyl-5-(3-pyridinyl)-4H-1,2,4-triazol-3-yl]thio]-], the pEC50 at CpomOrco (setting [1]) was around 3.25; on CpomOrco (setting [2]) it was around 3.39; on CpomOrco^Q417H (setting [3]), around 3.58; at CpomOrco^Q417H (control pH conditions (pH 7.4), Hill fit), around 3.58. In addition, the results for the “h (Hill equation)” value on CpomOrco (intracellular pH = 5.5) and on CpomOrco (intracellular pH = 8.0) were ~ 5 ± 3.9 and ~ 4 ± 0.6, respectively. Also, the “number of cells sensitive to VUAA1” value on CpomOrco (intracellular pH = 5.5, GFP positive cells tested) is listed as 3 out of 4; on CpomOrco (intracellular pH = 8.0, GFP positive cells tested), 8 out of 13. Also, the “Imax (whole-cell current amplitude, Hill fit)” value at CpomOrco (setting [1]) was ~ 196 pA and ~ 196 + -32 pA; on CpomOrco (setting [2]) it was ~ 784 pA and ~ 784 ± 40 pA. Moreover, the Hill coefficient is listed as ~ 2.2 ± 0.5 at CpomOrco^Q417H (setting [3]) and ~ 2.1 ± 1.9 on CpomOrco^Q417H (control pH conditions (pH 7.4)). Besides, the “maximum response (Hill fit of calcium response amplitudes)” value at CpomOrco^Q417H (after 30 min incubation at low pHe = 4.7, n = 63, constraints applied to fit) was ~ 1.8 ± 0.2 ∆F and 1.8 ∆F; at CpomOrco^Q417H (control pH conditions (pH 7.4), N = 94 cells) it was ~ 3.9 ∆F and ~ 3.9 ± 1.3 ∆F and 3.9 ∆F.
